pIC50: −log10 of the molar value.
Legend:
[1] = biological target: T1, acyl-CoA:cholesterol acyltransferase (ACAT) (Oryctolagus cuniculus, UniProt G1SFD9); assay: in vitro ACAT inhibition test (radiolabeled cholesterol oleate formed from radiolabeled oleic acid, rabbit intestinal microsomes); format: biochemical; conditions: inhibition of acylation of cholesterol by oleic acid
T1 construct: a tissue preparation containing rabbit intestinal microsomes; from tissue; host or cells: rabbit intestinal microsomes
T1 sequence (G1SFD9 1-524): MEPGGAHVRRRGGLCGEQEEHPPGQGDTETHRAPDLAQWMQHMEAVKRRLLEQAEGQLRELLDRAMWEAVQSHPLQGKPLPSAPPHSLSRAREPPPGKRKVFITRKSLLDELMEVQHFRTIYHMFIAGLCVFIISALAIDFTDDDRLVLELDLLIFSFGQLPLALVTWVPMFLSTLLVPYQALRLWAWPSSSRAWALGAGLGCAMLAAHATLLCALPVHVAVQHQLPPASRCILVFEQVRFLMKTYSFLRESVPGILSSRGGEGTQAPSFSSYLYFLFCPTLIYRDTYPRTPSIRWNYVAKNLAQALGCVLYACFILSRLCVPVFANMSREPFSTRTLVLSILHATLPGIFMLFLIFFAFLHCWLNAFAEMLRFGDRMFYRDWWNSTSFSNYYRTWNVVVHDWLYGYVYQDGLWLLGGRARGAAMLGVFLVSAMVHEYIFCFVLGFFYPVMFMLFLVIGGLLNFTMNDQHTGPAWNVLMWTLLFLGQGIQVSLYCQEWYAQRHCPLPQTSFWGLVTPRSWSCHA
Source text: As shown by the data presented below in Table 1, the compounds of the present invention are potent inhibitors of the enzyme acyl-CoA:cholesterolacyltransferase (ACAT), and are thus effective in inhibiting the esterification and transport of cholesterol across the intestinal cell wall. The compounds of the present invention are thus useful in pharmaceutical formulations for the treatment of hypercholesterolemia or atherosclerosis. The ability of representative compounds of the present invention to inhibit ACAT was measured using an in vitro test more fully described in Field, F. J. and Salone, R. G., Biochemica et Biophysica 712:557-570 (1982). The test assesses the ability of a test compound to inhibit the acylation of cholesterol by oleic acid by measuring the amount of radio-labeled cholesterol oleate formed from radiolabeled oleic acid in a tissue preparation containing rabbit intestinal microsomes. The data appear in Table 1 where they are expressed as IC50 values; i.e. the concentration of test compound required to inhibit 50% expression of the enzyme.

[2] = PCC in vivo screen, blood total cholesterol in cholesterol-fed rats; conditions: male Sprague-Dawley rats, diet with 5.5% peanut oil, 1.5% cholesterol, 0.3%-0.5% cholic acid, 0.05% drug in diet, one week
Source text: In one in vivo screen, designated PCC, male Sprague-Dawley rats (approximately 200 g body weight) are randomly divided into groups and provided ad libidum a regular chow diet (Purina No. 5002, Ralston Purina Co., 711 West Fuesser Road, Mascoutah, Ill., 62224, USA), supplemented with 5.5% peanut oil, 1.5% cholesterol, and 0.3%-0.5% cholic acid, together with 0.05% of the test drug which is admixed into the diet. After one week the animals are etherized and a blood sample is taken from the heart and mixed with 0.14% ethylenediamine tetraacetic acid (EDTA) to measure the total cholesterol.

Row | pIC50 [1] | SMILES | Blood Cholesterol [2] | Blood Cholesterol % Change [2]
1 | 7.10 | CCc1cccc(CC)c1NC(=O)NC(c1ccccc1)c1ccccc1 [Example 2, N-(2,6-Diethylphenyl)-N'-(diphenylmethyl)urea] | 127 mg/dL | -43%
2 | 7.35 | CC(C)c1cccc(C(C)C)c1NC(=O)NC(c1ccccc1)c1ccccc1 [Example 5, N-[2,6-bis(1-methylethyl)phenyl)-N'-(diphenylmethyl)urea] |  | 
3 | 7.04 | CCc1cccc(CC)c1NC(=O)NCC(c1ccccc1)c1ccccc1 [Example 3, N-(2,6-Diethylphenyl)-N'-(2,2-diphenylethyl)urea] | 105 mg/dL | -53%
4 | 7.03 | CCc1cccc(CC)c1NC(=O)NC(Cc1ccccc1)c1ccccc1 (stereo not shown) [Example 1, N-(2,6-Diethylphenyl)-N'-(1,2-diphenylethyl)urea] | 147 mg/dL | -29%
5 | 7.62 | CC(C)c1cccc(C(C)C)c1NC(=O)NCC(c1ccccc1)c1ccccc1 [Example 4, N-[2,6-bis(1-methylethyl)phenyl]-N'-(2,2-diphenylethyl)urea] | 95 mg/dL | -52%

Source: US5116848A, “N-(((2,6-disubstituted)phenyl)-N-diarylalkyl)ureas as antihyperlipidemic and antiatherosclerotic agents” (priority 1988, dated 1992)
